# Test results from patent US20110142848A1, “ANTI-BETA-2-MICROGLOBULIN AGENTS AND THE USE THEREOF” (priority 2008, published 2011).
# Key:
# C4-2B (KD) cells = test: MTS cell proliferation assay, C4-2B (KD); type: cell-based, human; settings: C4-2B (KD) versus neo-control
# Method: For example, six thousand (6,000) cells per well may be plated in 96 well plates, which may be cultured in 1% DCC-FBS (dextran-coated, charcoal-treated fetal bovine serum) containing T medium (C4-2B) or serum-free T medium (PC3) with 5% CO2 at 37° C. overnight. Cells may then be treated with anti-β2-M mAbs for 48 h. […] Two to four days post-treatment, cell growth may be determined by MTS assay using the CellTiter96 Aqueous One Solution Cell Proliferation Assay (Promega) according to the manufacturer's instructions.
# neo-control cells = test: MTS cell proliferation assay, neo-control cells; type: cell-based, human
# Method: For example, six thousand (6,000) cells per well may be plated in 96 well plates, which may be cultured in 1% DCC-FBS (dextran-coated, charcoal-treated fetal bovine serum) containing T medium (C4-2B) or serum-free T medium (PC3) with 5% CO2 at 37° C. overnight. Cells may then be treated with anti-β2-M mAbs for 48 h. Chemotherapeutic agents, such as PS-341, gemcitabine, cisplatin, doxorubicin, taxotere, or 17-AAG, may then be added to the culture media. Two to four days post-treatment, cell growth may be determined by MTS assay using the CellTiter96 Aqueous One Solution Cell Proliferation Assay (Promega) according to the manufacturer's instructions. Results from these experiments are shown in FIGS. 7-21, with various chemotherapeutic agents.
Structure (SMILES),"sensitivity to growth inhibition, β2-M knockdown cells compared with neo-control cells (C4-2B (KD) cells)",growth inhibition by agent alone (neo-control cells; PS-341 at concentrations of 1 (AM or higher)),growth inhibition by agent alone (neo-control cells; gemcitabine at lower doses (10 μM or lower))
"CC(C)C[C@H](NC(=O)[C@H](Cc1ccccc1)NC(=O)c1cnccn1)B(O)O [PS-341, bortezomib]",more sensitive,effective by itself,
Nc1ccn([C@@H]2O[C@H](CO)[C@@H](O)C2(F)F)c(=O)n1 [gemcitabine],more sensitive,,not particularly effective
CC(=O)O[C@@]12CO[C@@H]1C[C@H](O)[C@@]1(C)C(=O)[C@H](O)C3=C(C)[C@@H](OC(=O)[C@H](O)[C@@H](NC(=O)OC(C)(C)C)c4ccccc4)C[C@@](O)([C@@H](OC(=O)c4ccccc4)[C@H]21)C3(C)C [taxotere],more sensitive,,
N.N.[Cl][Pt][Cl] [cisplatin],more sensitive,,
